Converted amounts (≈) assume the structure as drawn. Read-outs that look alike come from different tables or passages of the source.

The values below come from US12172993B2 (priority 2018, dated 2024).

One data set is described as follows: physchem. The format is physicochemical.
The nature of a further data set: in vitro. Particulars: dog, MDCK.
The conditions of data set [1]: human, microsomes.
The nature of another data set: in vivo. The following applies: male, CD1, mouse.
The subject of the next data set is MDR1. Description: in vitro. Particulars: dog, MDCK-MDR1.
In data set [2] the test system is immune cells present in the tumour microenvironment.
The subject of data set [3] is cell-panel representing haematological cancers. Description: haematological cancer cell-panel growth inhibition (Oncolead). The format is cell-based.
A further data set has as its target RAF1 (Homo sapiens (Human), UniProt P04049, Y340D/Y341D). The format is biochemical. Particulars: read-out: Residual activity (%) at 1 μM.
The subject of another data set is NFKB activity. Particulars: PANC-1 reporter cells; in words.
Data set [4] concerns MC38 cells.
Data set [5] concerns MC38 cells. Put plainly: cells. Particulars: Mus musculus, MC-38, 72 h, read-out: MC38 IC50 (nM at 100 ng/mL TNF).
A further data set deals with PANC-1 cells. Put plainly: real-time live cell microscopy of TNF-induced cell death (YOYO-1). The data set is classed as cell-based. Particulars: real-time live cell assay.
The nature of data set [6]: maximal tolerable dose (MTD) study in female C57Bl/6 mice.
For data set [7] the following is noted: humans; prescribing information; cited from earlier work.
Data set [8] concerns the target T1, RET (Homo sapiens (Human), UniProt P07949). Description: biochemical. Particulars: read-out: Residual activity (%) at 1 μM, RET.
Data set [9] concerns the target T1, RET.
In another data set the target is MST4 (Homo sapiens (Human), UniProt Q9P289). Put plainly: biochemical. Particulars: read-out: Residual activity (%) at 1 μM.
The target in another data set is PDGFR-beta (Homo sapiens (Human), UniProt P09619). Put plainly: biochemical. Particulars: read-out: Residual activity (%) at 1 μM.
Chain of PDGFR-beta (P09619 33-1106 limits assumed): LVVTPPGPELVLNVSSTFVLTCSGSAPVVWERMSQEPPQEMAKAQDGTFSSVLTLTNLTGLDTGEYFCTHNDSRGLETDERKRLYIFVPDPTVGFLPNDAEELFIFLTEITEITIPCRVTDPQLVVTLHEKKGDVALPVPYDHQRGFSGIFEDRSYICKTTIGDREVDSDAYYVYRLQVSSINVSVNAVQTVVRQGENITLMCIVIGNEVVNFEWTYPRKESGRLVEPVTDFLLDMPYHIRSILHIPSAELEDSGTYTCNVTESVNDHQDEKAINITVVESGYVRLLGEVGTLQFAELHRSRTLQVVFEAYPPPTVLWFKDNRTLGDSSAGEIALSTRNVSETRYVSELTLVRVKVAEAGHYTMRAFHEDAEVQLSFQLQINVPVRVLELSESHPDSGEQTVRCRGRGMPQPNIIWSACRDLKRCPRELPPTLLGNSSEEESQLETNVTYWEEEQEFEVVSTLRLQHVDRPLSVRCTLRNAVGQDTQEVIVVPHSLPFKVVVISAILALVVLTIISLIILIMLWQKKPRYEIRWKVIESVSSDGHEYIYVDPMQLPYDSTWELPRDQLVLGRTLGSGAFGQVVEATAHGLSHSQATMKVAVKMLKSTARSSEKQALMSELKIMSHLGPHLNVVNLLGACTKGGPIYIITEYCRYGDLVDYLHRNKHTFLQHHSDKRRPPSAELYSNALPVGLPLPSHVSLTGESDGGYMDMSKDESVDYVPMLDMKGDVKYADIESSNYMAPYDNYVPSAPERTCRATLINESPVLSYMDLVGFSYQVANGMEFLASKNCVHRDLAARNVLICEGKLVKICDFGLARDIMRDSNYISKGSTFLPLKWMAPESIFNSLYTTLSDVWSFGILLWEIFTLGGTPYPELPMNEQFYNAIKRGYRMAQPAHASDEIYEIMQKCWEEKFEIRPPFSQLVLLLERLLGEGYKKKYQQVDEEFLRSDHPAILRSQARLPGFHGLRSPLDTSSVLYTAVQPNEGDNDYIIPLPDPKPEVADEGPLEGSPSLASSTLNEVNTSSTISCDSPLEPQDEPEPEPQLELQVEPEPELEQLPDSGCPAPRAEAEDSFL
The next data set deals with BMPR1A (Homo sapiens (Human), UniProt P36894). Description: biochemical. The following applies: read-out: Residual activity (%) at 1 μM.
Chain of BMPR1A (P36894 24-532 limits assumed): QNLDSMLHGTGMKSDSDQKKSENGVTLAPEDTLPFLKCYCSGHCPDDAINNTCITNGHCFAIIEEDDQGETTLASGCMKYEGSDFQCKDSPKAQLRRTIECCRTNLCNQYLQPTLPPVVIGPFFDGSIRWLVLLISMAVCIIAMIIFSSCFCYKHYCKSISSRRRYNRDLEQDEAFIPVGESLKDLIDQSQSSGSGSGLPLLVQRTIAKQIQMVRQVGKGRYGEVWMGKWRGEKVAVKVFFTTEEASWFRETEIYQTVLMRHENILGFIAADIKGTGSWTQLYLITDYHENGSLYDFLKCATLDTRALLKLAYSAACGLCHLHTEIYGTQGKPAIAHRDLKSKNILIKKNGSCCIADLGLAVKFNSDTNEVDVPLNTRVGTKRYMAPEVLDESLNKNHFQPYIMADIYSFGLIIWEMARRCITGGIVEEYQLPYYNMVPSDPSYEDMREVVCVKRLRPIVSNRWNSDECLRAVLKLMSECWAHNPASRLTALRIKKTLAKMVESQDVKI
The next data set addresses hERG potassium channel (Homo sapiens (Human), UniProt Q12809). The following applies: 3 uM; from NDA 21-986 review; cited from earlier work.
A further data set deals with WEE1 (Homo sapiens (Human), UniProt P30291). Put plainly: biochemical. The following applies: read-out: Residual activity (%) at 1 μM.
The mark [10] stands for this setting: twice daily treatment, intra-tumoural.

T1 sequence (P07949 29-1114 limits assumed): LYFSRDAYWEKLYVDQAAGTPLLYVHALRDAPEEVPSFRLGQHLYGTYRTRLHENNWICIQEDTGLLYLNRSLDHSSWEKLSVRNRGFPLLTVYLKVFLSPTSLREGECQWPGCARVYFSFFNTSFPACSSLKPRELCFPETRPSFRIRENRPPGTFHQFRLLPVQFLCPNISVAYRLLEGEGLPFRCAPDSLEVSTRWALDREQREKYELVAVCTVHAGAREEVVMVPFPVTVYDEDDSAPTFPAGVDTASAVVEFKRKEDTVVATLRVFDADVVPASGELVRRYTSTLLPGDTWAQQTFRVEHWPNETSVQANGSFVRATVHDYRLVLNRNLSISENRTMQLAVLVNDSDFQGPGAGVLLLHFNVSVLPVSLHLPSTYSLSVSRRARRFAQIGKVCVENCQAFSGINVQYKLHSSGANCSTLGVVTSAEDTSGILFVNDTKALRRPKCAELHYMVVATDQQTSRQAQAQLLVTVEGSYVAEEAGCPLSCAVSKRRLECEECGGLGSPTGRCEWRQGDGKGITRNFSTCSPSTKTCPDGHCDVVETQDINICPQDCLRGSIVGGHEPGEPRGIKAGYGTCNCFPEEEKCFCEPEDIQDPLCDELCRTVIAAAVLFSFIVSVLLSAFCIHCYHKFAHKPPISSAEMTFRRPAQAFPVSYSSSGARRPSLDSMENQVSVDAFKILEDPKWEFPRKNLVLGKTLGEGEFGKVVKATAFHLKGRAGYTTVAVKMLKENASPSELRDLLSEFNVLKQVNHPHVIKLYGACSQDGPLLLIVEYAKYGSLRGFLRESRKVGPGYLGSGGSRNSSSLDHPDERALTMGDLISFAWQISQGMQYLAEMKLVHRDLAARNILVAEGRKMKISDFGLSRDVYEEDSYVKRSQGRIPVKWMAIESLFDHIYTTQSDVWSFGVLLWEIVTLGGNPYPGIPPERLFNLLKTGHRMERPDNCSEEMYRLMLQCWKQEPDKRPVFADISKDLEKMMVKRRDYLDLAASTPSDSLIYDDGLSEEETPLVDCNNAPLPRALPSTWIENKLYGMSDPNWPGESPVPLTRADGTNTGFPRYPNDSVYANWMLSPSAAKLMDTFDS
Chain of RAF1 (P04049 307-648 Y340D/Y341D limits assumed): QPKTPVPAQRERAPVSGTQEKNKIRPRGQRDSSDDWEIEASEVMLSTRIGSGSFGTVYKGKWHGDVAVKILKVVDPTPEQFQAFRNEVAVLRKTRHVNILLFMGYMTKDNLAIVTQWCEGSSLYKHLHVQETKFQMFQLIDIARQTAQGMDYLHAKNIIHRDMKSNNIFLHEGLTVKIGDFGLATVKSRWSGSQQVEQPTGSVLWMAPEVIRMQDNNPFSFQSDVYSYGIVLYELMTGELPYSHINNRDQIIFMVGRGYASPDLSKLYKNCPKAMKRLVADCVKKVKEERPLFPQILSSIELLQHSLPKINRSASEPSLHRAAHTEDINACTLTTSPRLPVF

Take `Cc1nc(Nc2ncc(C(=O)Nc3c(Cl)ccnc3C)s2)cc(N2CCN(CCO)CC2)n1` [Compound B3, N-(4-chloro-2-methylpyridin-3-yl)-2-((6-(4-(2-hydroxyethyl)piperazin-1-yl)-2-methylpyrimidin-4-yl)amino)thiazole-5-carboxamide]: the kinetic solubility (in general, the concentration staying in solution when a stock, usually in DMSO, is diluted into the medium) in the data set “physchem” is 82 µM (≈ 40.1 µg/mL). For the same molecule, in the data set “physchem” (kinetic from dmso stock), the solubility (kinetic) was 82 µM (≈ 40.1 µg/mL). Further, the Papp (usually the rate of passage across a membrane or cell layer, normalised by area and donor concentration) in “in vitro” was determined as 20 ×10⁻⁶ cm/s. Also, in data set [1], the Intrinsic clearance (L/min/mg) stood at 24 µL/min/mg; the half-life – broadly, how long it takes for the measured level to halve – came out at 58 min; the “% Remaining at 40 min (%)” value is reported as 60%. Further, in the data set on human plasma-proteins, the “Percentage unbound (%)” value worked out at 7%. Besides, in the data set “in vivo” (plasma, iv, 1 mg/kg), the AUC(0-inf) (in general, the area under the concentration-time curve extrapolated to infinity) came out at 0.45 µM·h; the AUC(0-t) (commonly exposure summed from dosing to a finite time, without extrapolation to infinity) amounted to 0.437 µM·h; the Cmax (usually the peak of the concentration-time curve) came to 1230 nM; the MRT inf (commonly a mean duration of stay, worked out from the concentration-time curve) amounted to 17.4 min. Besides, in the data set “in vivo” (plasma, iv, 1 mg/kg), the MRT last – broadly, the average time that molecules of a dose stay in the body – amounted to 15 min; the Tmax (as a rule, the time from dosing to the highest level) is 4.98 min; the Vd (usually a proportionality between amount in the body and measured concentration, not a real space) is 1.31 L/kg; the clearance (in general, a measure of how efficiently the substance is removed, as volume per time) stood at 75 mL/min/kg. Besides, in the data set “in vivo” (plasma, po, 30 mg/kg), the AUC(0-inf) worked out at 0.687 µM·h, the AUC(0-t) is 0.589 µM·h, the Cmax came out at 202 nM and the Tmax amounted to 30 min. Besides, the bioavailability (usually the share of a dose that reaches the circulation, judged against a reference dose that is usually intravenous) in the data set “in vivo” (plasma, po, 30 mg/kg) is 4%. The Papp in the data set with MDR1 came to 20 ×10⁻⁶ cm/s. Moreover, the “Percentage unbound (%)” value in the data set with murine plasma-proteins was 11%.

As for `Cc1nc(Nc2ncc(C(=O)Nc3c(C)csc3Cl)s2)cc(N2CCN(CCO)CC2)n1` [Compound C7, N-(2-chloro-4-methylthiophen-3-yl)-2-((6-(4-(2-hydroxyethyl)piperazin-1-yl)-2-methylpyrimidin-4-yl)amino)thiazole-5-carboxamide], the “% Remaining at 40 min (%)” value in data set [1] was found to be 1%. Also, in [2] (mouse, in vivo), the “immunosuppressive M2 macrophages (CD206+MHC-II+)” value is given as “significantly reduced”. Also, in data set [2] (setting [10]), the “activation of cytotoxic T lymphocytes, CD25+CD69+” value is listed as “increased activation” and the “activation of cytotoxic T lymphocytes, granzyme B expression” value is listed as “increased activation”. Moreover, the “Percentage unbound (%)” value with human plasma-proteins (human plasma-protein binding) is less than 1%. Besides, in the data set “in vivo” (in vivo, iv, 1 mg/kg), the MRT inf came out at 60 min and the mean residence time (MRT last) turned out to be 42 min. Besides, in data set [3] (on about 5 cell lines of the panel), the GI50 activity entry is “sub-nanomolar”. Moreover, in [3] (read-out: GI50 activity), the GI50 (usually the concentration that inhibits growth by half) was less than 10 nM. The “phosphorylation of HDAC4” value with HDAC4 phosphorylation is listed as “inhibit the phosphorylation of HDAC4”. Moreover, the “Percentage unbound (%)” value with murine plasma-proteins (murine plasma protein binding) worked out at 5%. Moreover, the remaining activity at 1 µM on RAF1 fell in the range of 4 to 5%. Further, in the data set with NFKB activity, the “TNF-induced activity of NFkB” value is “inhibit TNF-induced activity of NFkB in a dose-dependent manner”. Moreover, in the data set on MC38 cells [4], the “sensitisation to the cytotoxic effect of TNF” value is given as “sensitised to the cytotoxic effect of TNF”. Moreover, the IC50 in the data set with MC38 cells [5] is less than 100 nM. Further, the “sensitisation to the effect of rHuTNF” value with PANC-1 cells is “sensitise PANC-1 cells to the effect of rHuTNF”. Also, the signs of intolerance result in data set [6] (33 and 100 mg/kg QD or BID, 7 consecutive days) is on record as “did not show any signs of intolerance”. For the same molecule, in [6] (all dosing groups vs non-treated control animals), the body weight entry is given as “minor reduction in body weight”. Moreover, the tolerable dose result in data set [6] (gavage, female C57BL/6 animals, seven days) was “up to 100 mg/kg BID”.

With `Cc1cn(-c2cc(NC(=O)c3ccc(C)c(Nc4nccc(-c5cccnc5)n4)c3)cc(C(F)(F)F)c2)cn1` [nilotinib], the “terminal / elimination half-life” value in [7] is reported as “approximately 17 hours”.

On to `Cc1nc(Nc2ncc(C(=O)Nc3c(C)cccc3Cl)s2)cc(N2CCN(CCO)CC2)n1` [Compound A8, N-(2-chloro-6-methylphenyl)-2-((6-(4-(2-hydroxyethyl)piperazin-1-yl)-2-methylpyrimidin-4-yl)amino)thiazole-5-carboxamide, reference compound], for which the apparent permeability (Papp) came to 49 ×10⁻⁶ cm/s in the data set “in vitro” and 105 ×10⁻⁶ cm/s in the data set on MDR1. Further, the Cmax worked out at 1280 nM in “in vivo” (plasma, iv, 1 mg/kg) and 1130 nM in the data set “in vivo” (plasma, po, 30 mg/kg). This molecule showed an MRT inf in the data set “in vivo” (plasma, iv, 1 mg/kg) of 96 min. The same molecule yielded an MRT last in “in vivo” (plasma, iv, 1 mg/kg) of 78 min. Moreover, the Tmax in the data set “in vivo” (plasma, iv, 1 mg/kg) was 4.8 min; in “in vivo” (plasma, po, 30 mg/kg), 120 min. In the data set “in vivo” (plasma, iv, 1 mg/kg), this molecule gave a Vd of 3.1 L/kg. For the same molecule, the clearance in the data set “in vivo” (plasma, iv, 1 mg/kg) amounted to 32 mL/min/kg. The bioavailability in the data set “in vivo” (plasma, po, 30 mg/kg) came to 21%. Further, the remaining activity at 1 µM at RET [8] was less than 40%; on MST4, 79%; at PDGFR-beta, 2%; on BMPR1A it was 42%; on WEE1, 61%. Besides, the “Residual activity (%) at 1 μM” value at RET [9] worked out at 39%. For the same molecule, on hERG potassium channel, the “inhibition of hERG currents” value is “about 6%”.
